# Measured values published in PubChem BioAssay AID623941 (Vanderbilt Specialized Chemistry Center, 2012).
# Activity calls are given as the source filed them.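 Rule for the calls: active = response rises or falls steadily with concentration, forming a dose-response curve as judged by the submitting lab; inactive = the rest.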
# Molecular target: Muscarinic acetylcholine receptor M2 (Rattus norvegicus) (UniProt P10980)
# Test: rat M2 muscarinic receptor PAM counter-screen, SAR follow-up, selectivity assay for M4 PAM optimization project, CHO cells, Gqi5 chimera, calcium, ACh EC20 (AID 623941)
# Settings: CHO rM2/Gqi5 calcium fluorescence, ACh EC20 potentiation
# Muscarinic acetylcholine receptor M2 (Rattus norvegicus), sequence (P10980 whole entry, looked up): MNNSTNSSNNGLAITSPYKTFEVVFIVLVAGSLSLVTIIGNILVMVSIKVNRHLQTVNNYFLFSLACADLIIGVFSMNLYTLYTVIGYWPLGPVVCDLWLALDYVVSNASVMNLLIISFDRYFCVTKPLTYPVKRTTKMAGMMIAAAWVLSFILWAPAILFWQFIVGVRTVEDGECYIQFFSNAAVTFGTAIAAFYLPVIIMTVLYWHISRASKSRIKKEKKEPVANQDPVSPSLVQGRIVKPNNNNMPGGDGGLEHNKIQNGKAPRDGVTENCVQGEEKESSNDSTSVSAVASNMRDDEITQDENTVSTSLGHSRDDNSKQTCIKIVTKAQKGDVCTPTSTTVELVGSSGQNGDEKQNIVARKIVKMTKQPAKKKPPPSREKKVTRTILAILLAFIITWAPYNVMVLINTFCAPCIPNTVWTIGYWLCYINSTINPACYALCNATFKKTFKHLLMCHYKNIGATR
Structure (SMILES),outcome,EC50
Cc1nc2sc(C(=O)NCc3ccccc3)c(N)c2c(C)c1Cl,inactive,–
Cc1nc2sc(C(=O)NCc3ccc4c(c3)OCO4)c(N)c2c(C)c1Cl,inactive,–
Cc1nc2sc(C(=O)NC3CC3)c(N)c2c(C)c1Cl,–,640 nM
Cc1nc2sc(C(=O)NCc3ccncc3)c(N)c2c(C)c1Cl,inactive,–
Cc1nc2sc(C(=O)NCc3cccnc3)c(N)c2c(C)c1Cl,inactive,–

# Same assay, conditions: CHO rM2/Gqi5 calcium fluorescence, ACh EC20 potentiation; at 30 µM (top of the series)
row,Structure (SMILES),% ACh max response
1,Cc1nc2sc(C(=O)NCc3nccs3)c(N)c2c(C)c1Cl,inactive
2,Cc1nc2sc(C(=O)NCc3cccc(F)c3F)c(N)c2c(C)c1Cl,inactive
3,COc1ccc(C)c2sc(NC(=O)c3ccncc3)nc12,inactive
4,Cc1nc2sc(C(=O)NCc3ccncn3)c(N)c2c(C)c1Cl,inactive
5,Cc1nc2sc(C(=O)NCCc3ccncc3)c(N)c2c(C)c1Cl,inactive
